Key:
Assay in all cases: relative viability (nuclei count vs DMSO), 5 days (fraction); higher = more cells survive
[1] = compound: C/C(=N\NC(=S)N1CCC1)/C2=CC=CC=N2 + COc1cc2c(Oc3ccc(NC(=O)C4(C(=O)Nc5ccc(F)cc5)CC4)cc3F)ccnc2cc1OCCCN1CCOCC1 [Foretinib] (partner 0.25 µM)
Summary of the method: (§1)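 Values are medians from duplicate plates. Each reflects relative viability, defined as the nuclei count of treated wells over that of vehicle wells. Lung cancer cell lines in 1536-well plates were pin-tool dosed one day after seeding with one drug alone or with a fixed anchor-drug dose plus five library-drug doses (not always all listed) in √10 steps, then fixed, stained and imaged at 4× after 5 days.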

[2] = compound: C/C(=N\NC(=S)N1CCC1)/C2=CC=CC=N2 + Cc1nc(NC(=O)N2CCC[C@H]2C(N)=O)sc1-c1ccnc(C(C)(C)C(F)(F)F)c1 [Alpelisib] (partner 2 µM)
Summary of the method: as §1

[3] = compound: C/C(=N\NC(=S)N1CCC1)/C2=CC=CC=N2 + Nc1nc2[nH]cc(CCc3ccc(C(=O)N[C@@H](CCC(=O)O)C(=O)O)cc3)c2c(=O)[nH]1 [Pemetrexed] (partner 0.2 µM)
Summary of the method: as §1

[4] = compound: C/C(=N\NC(=S)N1CCC1)/C2=CC=CC=N2 + O=C(c1cc(Cc2n[nH]c(=O)c3ccccc23)ccc1F)N1CCN(C(=O)C2CC2)CC1 [Olaparib] (partner 8 µM)
Summary of the method: as §1

| Cell Line | relative viability ([1]; first compound 0.05 µM) | relative viability ([1]; first compound 0.1581 µM) | relative viability ([1]; first compound 0.5 µM) | relative viability ([1]; first compound 1.581 µM) | relative viability ([1]; first compound 5 µM) | relative viability ([2]; first compound 0.05 µM) | relative viability ([2]; first compound 0.1581 µM) | relative viability ([2]; first compound 0.5 µM) | relative viability ([2]; first compound 1.581 µM) | relative viability ([2]; first compound 5 µM) | relative viability ([3]; first compound 0.05 µM) | relative viability ([3]; first compound 0.1581 µM) | relative viability ([3]; first compound 0.5 µM) | relative viability ([3]; first compound 1.581 µM) | relative viability ([3]; first compound 5 µM) | relative viability ([4]; first compound 0.05 µM) | relative viability ([4]; first compound 0.1581 µM) | relative viability ([4]; first compound 0.5 µM) | relative viability ([4]; first compound 1.581 µM) | relative viability ([4]; first compound 5 µM) |
| --- | --- | --- | --- | --- | --- | --- | --- | --- | --- | --- | --- | --- | --- | --- | --- | --- | --- | --- | --- | --- |
| H3255 | 0.241 | 0.245 | 0.241 | 0.242 | 0.29 | 0.242 | 0.323 | 0.221 | 0.181 | 0.214 | 0.359 | 0.349 | 0.355 | 0.268 | 0.255 | 0.353 | 0.321 | 0.292 | 0.235 | 0.254 |
| EPLC-272H | 0.0785 | 0.069 | 0.1 | 0.0473 | 0.0779 | 0.125 | 0.293 | 0.185 | 0.166 | 0.203 | 0.165 | 0.179 | 0.149 | 0.0756 | 0.265 | 0.114 | 0.13 | 0.0724 | 0.0602 | 0.131 |
| PC-3 [JPC-3] | 0.518 | 0.525 | 0.349 | 0.259 | 0.242 | 0.556 | 1.03 | 0.341 | 0.282 | 0.208 | 0.394 | 0.464 | 0.308 | 0.265 | 0.237 | 0.581 | 0.506 | 0.432 | 0.382 | 0.351 |
| NCI-H1793 | 0.229 | 0.382 | 0.157 | 0.143 | 0.188 | 0.245 | 0.179 | 0.169 | 0.168 | 0.191 | 0.158 | 0.162 | 0.151 | 0.112 | 0.136 | 0.255 | 0.143 | 0.169 | 0.123 | 0.107 |
| EKVX | 0.0957 | 0.192 | 0.118 | 0.104 | 0.984 | 0.119 | 0.124 | 0.111 | 0.13 | 0.151 | 0.148 | 0.163 | 0.0961 | 0.166 | 0.175 | 0.149 | 0.115 | 0.121 | 0.16 | 0.167 |
| ChaGo-K-1 | 0.217 | 0.24 | 0.211 | 0.176 | 0.171 | – | – | – | – | – | 0.172 | 0.171 | 0.18 | 0.161 | 0.162 | 0.137 | 0.247 | 0.126 | 0.138 | 0.135 |
| NCI-H23 | 0.226 | 0.262 | 0.196 | 0.181 | 0.209 | 0.128 | 0.148 | 0.141 | 0.128 | 0.155 | 0.16 | 0.175 | 0.203 | 0.137 | 0.19 | 0.129 | 0.101 | 0.0966 | 0.0889 | 0.111 |
| EMC-BAC-2 | 0.209 | 0.261 | 0.246 | 0.183 | 0.237 | 0.288 | 0.426 | 0.122 | 0.163 | 0.152 | 0.26 | 0.255 | 0.275 | 0.228 | 0.259 | 0.188 | 0.22 | 0.195 | 0.164 | 0.203 |
| LOU-NH91 | 0.519 | 0.447 | 0.507 | 0.469 | 0.375 | 0.485 | 0.442 | 0.407 | 0.382 | 0.424 | 0.392 | 0.439 | 0.421 | 0.403 | 0.366 | 0.482 | 0.562 | 0.458 | 0.44 | 0.451 |
| LU99A | 0.276 | 0.189 | 0.181 | 0.186 | 0.189 | 0.174 | 0.0993 | 0.112 | 0.142 | 0.135 | 0.192 | 0.158 | 0.164 | 0.146 | 0.162 | 0.168 | 0.207 | 0.124 | 0.102 | 0.128 |
| NCI-H1395 | 0.381 | 0.368 | 0.369 | 0.351 | 0.349 | 0.4 | 0.354 | 0.423 | 0.354 | 0.463 | 0.313 | 0.402 | 0.322 | 0.32 | 0.348 | 0.321 | 0.285 | 0.373 | 0.364 | 0.39 |
| NCI-H460 | 0.1 | 0.06 | 0.0602 | 0.0533 | 0.0171 | 0.0117 | 0.0186 | 0.0138 | 0.0126 | 0.0076 | 0.0583 | 0.0469 | 0.0644 | 0.0399 | 0.014 | 0.0648 | 0.0442 | 0.0577 | 0.0429 | 0.0274 |
| 201T | 0.213 | 0.209 | 0.19 | 0.181 | 0.177 | 0.697 | 0.994 | 0.647 | 0.476 | 0.4 | 0.292 | 0.315 | 0.289 | 0.294 | 0.286 | 0.487 | 0.871 | 0.349 | 0.241 | 0.247 |
| NCI-H1944 | 0.624 | 0.38 | 0.181 | 0.143 | 0.166 | 0.669 | 0.794 | 0.307 | 0.191 | 0.133 | 0.212 | 0.15 | 0.133 | 0.112 | 0.124 | 0.27 | 0.426 | 0.14 | 0.136 | 0.138 |
| NCI-H2405 | 0.263 | 0.313 | 0.31 | 0.251 | 0.264 | 0.179 | 0.198 | 0.276 | 0.202 | 0.199 | 0.243 | 0.238 | 0.251 | 0.215 | 0.215 | 0.259 | 0.272 | 0.268 | 0.252 | 0.208 |
| NCI-H1703 | 0.163 | 0.142 | 0.163 | 0.206 | 0.246 | 0.0878 | 0.0975 | 0.132 | 0.112 | 0.122 | – | – | – | – | – | 0.0864 | 0.132 | 0.103 | 0.0868 | 0.158 |
